Assay results as given in patent US20070078170A1, “Process for the preparation of pioglitazone” (priority 2003, published 2007).

Assays:
[1] = Solubility studies in USPII dissolution apparatus; assay type: physicochemical
Procedure: Solubility experiments were performed in USPII dissolution apparatus operated at 150 r.p.m., at 25° C., in the following media: 250 ml of 0.01N HC1-0.3M KCI (pH 2)
Procedure: 625 mg of pioglitazone hydrochloride was added in 250 ml of media and solubility was determined at given time points.

[2] = Clarity of solution in acidic media on standing; assay type: physicochemical
[3] = 1.5 hrs, 625 mg in 250 ml of 0.01N HCl-0.3M KCl (pH 2), 25° C., 150 r.p.m., average of six unit data, Hydrochloride
[4] = 5 hrs, 625 mg in 250 ml of 0.01N HCl-0.3M KCl (pH 2), 25° C., 150 r.p.m., average of six unit data, Hydrochloride
[5] = 20 hrs, 625 mg in 250 ml of 0.01N HCl-0.3M KCl (pH 2), 25° C., 150 r.p.m., average of six unit data, Hydrochloride
[6] = 0.01N HCl-0.3M KCl media (pH 2)

In the case of Pioglitazone Hydrochloride [Example 4], the “Observation of the media (turbidity, precipitation)” value ([1]; 0.01N HCl-0.3M KCl (pH 2), later time points) is reported as “the media starts becoming turbid and shows drug precipitation on later time points”, the Solubility [1, 3] is reported as 2265 µg/mL and the Solubility [1, 4] is reported as 722 µg/mL. For the same substance, the Solubility [1, 5] was 473 µg/mL.
In the case of Pioglitazone Hydrochloride [Example 5], the Solubility [1, 6] is reported as “more than 2.4 mg/ml”, the “Standing time without precipitation from the solution” value [1, 6] is reported as “more than 5 hours” and the Solubility ([1]; 30 min, 625 mg in 250 ml of 0.01N HCl-0.3M KCl (pH 2), 25° C., 150 r.p.m., average of six unit data) is reported as 2719 µg/mL. The Solubility [1, 3] was 2587 µg/mL, the Solubility [1, 4] was 2766 µg/mL and the Solubility [1, 5] was 2747 µg/mL.
For “pioglitazone hydrochloride [listing 1 of 2 here]”, the “Standing time over which the solution remains clear” value [2] was no less than 20 h.
With “pioglitazone hydrochloride [listing 2 of 2 here]” the “Standing time after which the solution becomes turbid and the drug precipitates” value ([2]; initially clear solution) was 4 to 5 h.
